According to US7999119B2, “Compounds having CRTH2 antagonist activity” (Oxagen Limited, priority 2006, dated 2011):
Several values for one entry are separate records, joined by “and”; a condition that tells them apart may be missing. Identical values can stand only once. Like-named read-outs stand apart in the source and are kept apart here.

What was measured:
[1] = test system: PGD2 induced eosinophil shape change; test: Human whole blood eosinophil shape change assay; type: cell-based; conditions: Homo sapiens, Eosinophil
Procedure, shortened: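 Compound added to human whole blood and incubated 15 min at 37° C., 5% CO2, before cell fixation and red-cell lysis. Leukocytes analysed by FACS, eosinophils gated by autofluorescence, 2000 events per sample, triplicate; read-out is inhibition of PGD2-induced eosinophil shape change.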

[2] = Pharmacokinetics following oral administration in the rat; type: in vivo
Description: Investigation of Pharmacokinetics of Compounds of General Formula (I) Following Oral Administration in the Rat
Rats were weighed on the day of dosing.
The test material was prepared as a 0.3 mg/mL suspension in 1% carboxy-methyl-cellulose (CMC).
Three groups of 3 rats were dosed as follows:
Doses were administered as a single oral dose using a gavage tube at a constant dose volume of 10 mL/kg.
At each sampling time point blood samples (approximately 0.3 mL) was taken from a catheter inserted into a lateral tail vein prior to the start of the experiment. The final blood sample (approximately 2 mL) from each animal was taken by cardiac puncture under isoflurane anaesthesia following which the animal was killed by exsanguination. Blood samples were taken into individual heparinised containers. Blood samples were collected at the following times post-dose:
Following collection, the blood samples were centrifuged (approximately 10,000×g, 2 min at 4° C.) and the plasma stored as one aliquot at approximately −20° C. pending analysis of drug concentrations by LC-MS/MS.
The plasma samples were analysed for test material concentrations at BioDynamics using an LC-MS/MS method developed at BioDynamics.

[3] = test system: DK-PGD2-induced blood eosinophilia; test: Inhibition of DK-PGD2-induced blood eosinophilia in rats; type: in vivo, rat; conditions: female rats, oral dosing 30 min before 10 μg DK-PGD2 intracardiac; ED50 from dose-response curve; the values are: ED50
Description: Evaluation of Compounds of General Formula (I) as Inhibitors of 13,14-dihydro-15-keto prostaglandin D2 (DK-PGD2)-Induced Blood Eosinophilia in Rats
The test compound was dissolved in DMSO and diluted with water to give a final dosing volume of 2 ml/kg.
Female rats (175-250 g; UH colony) were dosed orally with test compound (or vehicle).
30 min after dosing all animals were anaesthetised with isoflurane.
Following induction of anaesthesia, animals receive an intracardiac injection of 10 μg DK-PGD2 in 0.3 ml heparinised (10 U/ml) saline. Control animals received an injection of 0.3 ml heparinised saline.
60 min after the intracardiac injection, animals were injected with an overdose of pentobarbitone sodium and a blood sample was taken (into heparin) by cardiac puncture while the rat was anaesthetised but not dead.
An aliquot of blood (100 μl) was added to Turk's solution and the total leukocyte count determined with a haemocytometer.
A further aliquot of blood (500 μl) was mixed with an equal volume of 4% Dextran (mw 500,000) and the erythrocytes allowed to settle. A cytospin preparation was made from the resulting leukocyte rich fraction.
Cytospin preparations were fixed with methanol (5 min) and stained with May-Grunwald (5 min) and Giemsa (15 min) stains. Finally cytospins were washed in phosphate buffer (pH6.8) and air dried.
Differential leukocyte counts were obtained from the cytospin preparations.
Blood eosinophil numbers were determined from the total leukocyte count and the percentage eosinophils (differential count).
Because it was impractical to generate sufficient data in any given experiment, data were obtained over a number of replicate experiments. Data from these replicate experiments were pooled, to provide at least 5 animals in each group and a dose-response curve fitted following a significance test (Mann Whitney) to determine whether or not DK-PGD2 caused a significant increase in blood eosinophils (GraphPad, Prism). A difference between groups was taken to be significant when P<0.05. ED50 values were calculated from the dose-response curve.

[4] = rat, 3 mg/kg p.o, individual male animals, 3 mg/kg

- IC50 ([1]; 10 nm PGD2-induced eosinophil shape change, human whole blood, read-out: Whole Blood IC50): 8 nM
- IC50 ([1]; Table 12 summary of whole blood eosinophil shape change IC50, read-out: IC50 (μmol)): 8 nM
- IC50 ([1]; whole blood eosinophil shape change IC50 converted to ng/mL, read-out: IC50): 3 ng/mL
- IC50 ([1]; read-out: IC50 in the whole blood eosinophil shape change assay): 8 nM
- concentration at 0.25 h ([2]; male, rat, plasma, po, 3 mg/kg, rat, 3 mg/kg oral, 0.25 h, individual male animals, read-out: Concentration in Blood): 91.8 ng/mL
- concentration at 0.25 h ([2]; male, rat, plasma, po, 3 mg/kg, rat, 3 mg/kg oral, 0.25 h, mean, read-out: Concentration in Blood, Mean): 87.6 ng/mL
- concentration at 0.5 h ([2]; male, rat, plasma, po, 3 mg/kg, rat, 3 mg/kg oral, 0.5 h, individual male animals, read-out: Concentration in Blood): 121 ng/mL
- concentration at 0.5 h ([2]; male, rat, plasma, po, 3 mg/kg, rat, 3 mg/kg oral, 0.5 h, mean, read-out: Concentration in Blood, Mean): 140 ng/mL
- concentration at 1 h ([2]; male, rat, plasma, po, 3 mg/kg, rat, 3 mg/kg oral, 1 h, individual male animals, read-out: Concentration in Blood): 252 ng/mL
- concentration at 1 h ([2]; male, rat, plasma, po, 3 mg/kg, rat, 3 mg/kg oral, 1 h, mean, read-out: Concentration in Blood, Mean): 255 ng/mL
- concentration at 2 h ([2]; male, rat, plasma, po, 3 mg/kg, rat, 3 mg/kg oral, 2 h, mean, read-out: Concentration in Blood, Mean): 381 ng/mL
- concentration at 4 h ([2]; male, rat, plasma, po, 3 mg/kg, rat, 3 mg/kg oral, 4 h, mean, read-out: Concentration in Blood, Mean): 283 ng/mL
- concentration at 6 h ([2]; male, rat, plasma, po, 3 mg/kg, rat, 3 mg/kg oral, 6 h, mean, read-out: Concentration in Blood, Mean): 182 ng/mL
- concentration at 8 h ([2]; male, rat, plasma, po, 3 mg/kg, rat, 3 mg/kg oral, 8 h, mean, read-out: Concentration in Blood, Mean): 114 ng/mL
- concentration at 12 h ([2]; male, rat, plasma, po, 3 mg/kg, rat, 3 mg/kg oral, 12 h, mean, read-out: Concentration in Blood, Mean): 27.3 ng/mL
- concentration at 24 h ([2]; male, rat, plasma, po, 3 mg/kg, rat, 3 mg/kg oral, 24 h, individual male animals, read-out: Concentration in Blood): 0 ng/mL
- concentration at 24 h ([2]; male, rat, plasma, po, 3 mg/kg, rat, 3 mg/kg oral, 24 h, mean, read-out: Concentration in Blood, Mean): 0 ng/mL
- Tmax ([2]; male, rat, plasma, po, 3 mg/kg, rat, 3 mg/kg p.o, individual male animals, read-out: Tmax): 2 h
- half-life ([2]; male, rat, plasma, po, 3 mg/kg, rat, 3 mg/kg p.o, individual male animals, read-out: T½ (converted)): 3.41 h
- AUC(0-inf) ([2]; male, rat, plasma, po, 3 mg/kg, rat, 3 mg/kg p.o, mean, summary without unit (Table 12), read-out: AUCinf (mean)): 2200 ng·h/mL
- Cmax ([2]; male, rat, plasma, po, 3 mg/kg, rat, 3 mg/kg p.o, mean, summary without unit (Table 12), read-out: Cmax (mean)): 381 ng/mL
- AUC(0-inf) ([2]; male, rat, plasma, po, 3 mg/kg, rat, 3 mg/kg p.o, mean, read-out: AUCinf, Mean): 2200 ng·h/mL
- Cmax ([2]; male, rat, plasma, po, 3 mg/kg, rat, 3 mg/kg p.o, mean, read-out: Cmax, Mean): 381 ng/mL
- Tmax ([2]; male, rat, plasma, po, 3 mg/kg, rat, 3 mg/kg p.o, mean, read-out: Tmax, Mean): 2 h
- half-life ([2]; male, rat, plasma, po, 3 mg/kg, rat, 3 mg/kg p.o, mean, read-out: T½, Mean (converted)): 2.4 h
- Fold over IC50 at 24 h ([2]; mean blood concentration at 24 h (rat, 3 mg/kg p.o.) divided by whole blood IC50 in ng/ml): 0
- Concentration in Blood ([2]; rat, 3 mg/kg oral, 0.25 h, individual male animals, 3 mg/kg): 113.6 ng/mL and 57.3 ng/mL
- Concentration in Blood ([2]; rat, 3 mg/kg oral, 0.5 h, individual male animals, 3 mg/kg): 165.7 ng/mL and 132.1 ng/mL
- Concentration in Blood ([2]; rat, 3 mg/kg oral, 1 h, individual male animals, 3 mg/kg): 295.1 ng/mL and 217.5 ng/mL
- Concentration in Blood ([2]; rat, 3 mg/kg oral, 12 h, individual male animals, 3 mg/kg): 36.5 ng/mL and 31.0 ng/mL and 14.5 ng/mL
- Concentration in Blood ([2]; rat, 3 mg/kg oral, 24 h, individual male animals): 0 ng/mL
- T½ [2, 4]: 1.80 h and 1.86 h
- AUCinf (mean) ([2]; rat, 3 mg/kg p.o, mean, summary without unit (Table 12), 3 mg/kg, in ng·h/mL): 2198
Compound: Cc1c(Cc2ccc(S(C)(=O)=O)cc2)c2cc(F)ccc2n1CC(=O)O [Compound B, [5-Fluoro-3-(4-methanesulfonyl-benzyl)-2-methyl-indol-1-yl]-acetic acid, reference compound]
- Concentration in Blood ([2]; rat, 3 mg/kg oral, 2 h, individual male animals, 3 mg/kg): 349.9 ng/mL and 536.9 ng/mL and 256.2 ng/mL
- Concentration in Blood ([2]; rat, 3 mg/kg oral, 4 h, individual male animals, 3 mg/kg): 179.4 ng/mL and 485.2 ng/mL and 184.9 ng/mL
- Concentration in Blood ([2]; rat, 3 mg/kg oral, 6 h, individual male animals, 3 mg/kg): 128.3 ng/mL and 292.2 ng/mL and 125.8 ng/mL
- Concentration in Blood ([2]; rat, 3 mg/kg oral, 8 h, individual male animals, 3 mg/kg): 72.1 ng/mL and 184.5 ng/mL and 84.7 ng/mL
- AUCinf [2, 4]: 1831.4 ng·h/mL and 3256.1 ng·h/mL and 1505.1 ng·h/mL
- Cmax [2, 4]: 349.9 ng/mL and 536.9 ng/mL and 256.2 ng/mL
- Potency in inhibition of DK-PGD2-induced blood eosinophilia [3]: 17 mg/kg
